Experimental data as given in the supplement of paper PMC10307832.

Assays:
Assay in all cases: relative viability (nuclei count vs DMSO), 5 days (fraction); higher = more cells survive
NCI-H1792 = test system: NCI-H1792
How it was run: (§1)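 After 5 days of treatment, lung cancer cells in 1536-well plates were fixed and stained in a single step (final 0.05% Triton X-100, 1% formaldehyde, 1 ug/ml Hoechst) and their nuclei counted on 4× images. Treatment had been applied by pin tool the day after seeding as one drug alone or as a fixed anchor-drug dose with five library-drug doses (not always all listed) in √10 steps. Relative viability is the nuclei count of treated wells divided by that of vehicle wells, and values are medians of duplicate plates.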

NCI-H2347 = test system: NCI-H2347
How it was run: as §1

HCC-15 = test system: HCC-15
How it was run: as §1

NCI-H358 = test system: NCI-H358
How it was run: as §1

NCI-H1734 = test system: NCI-H1734
How it was run: as §1

NCI-H647 = test system: NCI-H647
How it was run: as §1

SW 1573 = test system: SW 1573
How it was run: as §1

NCI-H2228 = test system: NCI-H2228
How it was run: as §1

LXF-289 = test system: LXF-289
How it was run: as §1

PC-3 [JPC-3] = test system: PC-3 [JPC-3]
How it was run: as §1

For `COc1cc2nccc(Oc3ccc(NC(=O)Nc4cc(C)on4)c(Cl)c3)c2cc1OC` [Tivozanib] + CS(=O)(=O)CCNCc1ccc(-c2ccc3ncnc(Nc4ccc(OCc5cccc(F)c5)c(Cl)c4)c3c2)o1 [Lapatinib] (partner 2 µM), the relative viability (NCI-H1792; first compound 0.005 µM) was 0.901, the relative viability (NCI-H1792; first compound 0.01581 µM) was 0.925 and the relative viability (NCI-H1792; first compound 0.05 µM) was 0.922. For the same molecule, the relative viability (NCI-H1792; first compound 0.1581 µM) was 0.841, the relative viability (NCI-H1792; first compound 0.5 µM) was 1.01 and the relative viability (NCI-H2347; first compound 0.005 µM) was 0.881. For the same molecule, the relative viability (NCI-H2347; first compound 0.01581 µM) was 0.93, the relative viability (NCI-H2347; first compound 0.05 µM) was 0.963 and the relative viability (NCI-H2347; first compound 0.1581 µM) was 1.11. For the same molecule, the relative viability (NCI-H2347; first compound 0.5 µM) was 0.907, the relative viability (HCC-15; first compound 0.005 µM) was 0.83 and the relative viability (HCC-15; first compound 0.01581 µM) was 0.899. The relative viability (HCC-15; first compound 0.05 µM) was 0.795, the relative viability (HCC-15; first compound 0.1581 µM) was 0.977 and the relative viability (HCC-15; first compound 0.5 µM) was 0.831. It also gave a relative viability (NCI-H358; first compound 0.005 µM) of 0.476, a relative viability (NCI-H358; first compound 0.01581 µM) of 0.563 and a relative viability (NCI-H358; first compound 0.05 µM) of 0.479. For the same molecule, the relative viability (NCI-H358; first compound 0.1581 µM) was 0.435, the relative viability (NCI-H358; first compound 0.5 µM) was 0.499 and the relative viability (NCI-H1734; first compound 0.005 µM) was 1.03. For the same molecule, the relative viability (NCI-H1734; first compound 0.01581 µM) was 1.05, the relative viability (NCI-H1734; first compound 0.05 µM) was 1.17 and the relative viability (NCI-H1734; first compound 0.1581 µM) was 0.814. It also gave a relative viability (NCI-H1734; first compound 0.5 µM) of 1.01, a relative viability (NCI-H647; first compound 0.005 µM) of 0.935 and a relative viability (NCI-H647; first compound 0.01581 µM) of 0.971. For the same molecule, the relative viability (NCI-H647; first compound 0.05 µM) was 0.98, the relative viability (NCI-H647; first compound 0.1581 µM) was 0.866 and the relative viability (NCI-H647; first compound 0.5 µM) was 0.966. The relative viability (SW 1573; first compound 0.005 µM) was 0.909, the relative viability (SW 1573; first compound 0.01581 µM) was 1.25 and the relative viability (SW 1573; first compound 0.05 µM) was 1.16. The relative viability (SW 1573; first compound 0.1581 µM) was 0.856, the relative viability (SW 1573; first compound 0.5 µM) was 1.08 and the relative viability (NCI-H2228; first compound 0.005 µM) was 1.07. For the same molecule, the relative viability (NCI-H2228; first compound 0.01581 µM) was 1.1, the relative viability (NCI-H2228; first compound 0.05 µM) was 1.07 and the relative viability (NCI-H2228; first compound 0.1581 µM) was 1.03. For the same molecule, the relative viability (NCI-H2228; first compound 0.5 µM) was 0.948, the relative viability (LXF-289; first compound 0.005 µM) was 0.888 and the relative viability (LXF-289; first compound 0.01581 µM) was 0.886. For the same molecule, the relative viability (LXF-289; first compound 0.05 µM) was 0.902, the relative viability (LXF-289; first compound 0.1581 µM) was 0.946 and the relative viability (LXF-289; first compound 0.5 µM) was 0.905. It also gave a relative viability (PC-3 [JPC-3]; first compound 0.005 µM) of 0.429, a relative viability (PC-3 [JPC-3]; first compound 0.01581 µM) of 0.453 and a relative viability (PC-3 [JPC-3]; first compound 0.05 µM) of 0.509. For the same molecule, the relative viability (PC-3 [JPC-3]; first compound 0.1581 µM) was 0.378 and the relative viability (PC-3 [JPC-3]; first compound 0.5 µM) was 0.433.
